Patent US20260216139A1, “METHOD FOR TREATING NEUROLOGICAL DISEASES THROUGH GLIAL PRUNING REGULATION” (Fred Hutchinson Cancer Center, priority 2022, published 2026)

Tested on: C. elegans
Assay: Effects of exposure to drugs on glial pruning: number of engulfed AFD neuron fragments in AMsh glia
Format: in vivo
Settings: for suppression of defects, judged by the number of engulfed fragments in glia: pdr-1 single or pdr-1; for number of engulfed fragments of neuron within glia: pdr-1 mutant animals, upon drug exposure
Procedure: C. elegans were cultured as known to one of skill in the art. Bristol N2 strain was used as wild type. For all experiments, animals were raised at 20° C. for at least two generations without starvation, picked as L4 larvae onto fresh plate, and assayed 1 day later unless otherwise noted. For analysis of glial engulfment, animals were crossed to the strain dnals13, an integrated transgene bearing gcy-23: GFP recombineered fosmid outcrossed to Bristol N2 four times. To control environmental variations, worms were raised from egg-lay in a humidity and temperature-controlled environment until imaging. Worms were staged at the L4 stage using vulval anatomy. Day 1 adult animals were staged at the L4 stage and then grown for approximately 24 more hours (unless otherwise stated) in the controlled environment. Worms were imaged and glial engulfment was analyzed as described in the methods below.
Worms were immobilized with 40 mM sodium azide. Images were collected on a Deltavision® Elite RoHS wide-field deconvolution system with Ultimate Focus® (GE), a PlanApo 60×/1.42 NA or OLY 100×/1.40 NA oil-immersion objective, and a DV Elite CMOS Camera. Images of the AFD puncta in the region of the AMsh were taken at 100× using FITC with 100% transmission and 0.0405 ms exposure with a reference image taken at 5% POL in the middle of the sample. For worms expressing an extrachromosomal array tagged with mCherry, images were also taken using an A594 filter with 0.02 ms exposure to ensure expression of the array in the cell of interest. Images were then deconvolved and cropped to 1024×1024 in the area of interest. Next, images were processed using FIJI®. All images were converted to 8-bit and brightness and contrast were set with a minimum of 0 and a maximum of 50. Next, a rectangle is drawn around the region of the AMsh adjacent to, but not including, the AFD cell body and excluding any area along the AFD process. Next, the image is cropped to this region, and the tool “3D Objects Counter” is run with the following settings: threshold=35; size min.=5 max.=7225848; exclude objects side. This number of puncta is then verified by eye and recorded.
Data and statistics were either graphed and analyzed using Prism9 or by using R. Statistical analysis in R was conducted using the open-source data visualization package ggplot2. Data is represented in a boxplot with each point representing the number of puncta engulfed within the cell body of one AMsh glia in a single worm. Dots represent the biological replicate in which the individual worm was imaged unless otherwise specified to represent genotype.
4 mL standard C. elegans nematode growth medium (NGM) was aliquoted into 35 mm Petri dishes and stored at 4 degrees Celsius. Plates were warmed to room temperature and seeded with 100 μL of OP50 and dried overnight. Plates were then spotted with 100 μL of diluted SP600125 (in DMSO), Apocynin (in DMSO), or EHop-016 (in DMSO) for a final concentration of 0.5% or 1% DMSO (as labeled) and a final concentration of the treatment drug of 50 μM (unless otherwise specified). Spot treatment was allowed to dry before L1 staged C. elegans were transferred onto the plate. Worms were then imaged approximately 2 days later. Worms were staged at this time by vulval anatomy, body size, and the presence or absence of eggs. […] At this time, worms were imaged, and glial engulfment levels were analyzed.

COc1cc(C(C)=O)ccc1O (racemic) [Apocynin, acetovanillone]
suppression of defects, judged by the number of engulfed fragments in glia (pink-1 double mutant animals): suppress

CCn1c2ccccc2c2cc(Nc3ccnc(NCCCN4CCOCC4)n3)ccc21 (racemic) [EHOP-016]
pruning (pdr-1, pink-1 double mutant animals, 10 μM): increased | pdr-1 defect (pruning) (pdr-1 lesion animals (FIG. 21C right), 10 μM): increased | suppression of defects, judged by the number of engulfed fragments in glia (pink-1 double mutant animals): did not suppress | pruning (wild type animals, 10 μM): increase

CC(C)C[C@@H](C=O)NC(=O)[C@H](CC(C)C)NC(=O)[C@H](CC(C)C)NC(=O)OCc1ccccc1 (racemic) [MG-132]
number of engulfed fragments of neuron within glia: reduction

O=[N+]([O-])c1ccc(O)c([N+](=O)[O-])c1 [DNP]
number of engulfed fragments of neuron within glia: no change

CO[C@H]1C[C@@H]2CC[C@@H](C)[C@@](O)(O2)C(=O)C(=O)N2CCCC[C@H]2C(=O)O[C@H]([C@H](C)C[C@@H]2CC[C@@H](O)[C@H](OC)C2)CC(=O)[C@H](C)/C=C(\C)[C@@H](O)[C@@H](OC)C(=O)[C@H](C)C[C@H](C)/C=C/C=C/C=C/1C [rapamycin]
number of engulfed fragments of neuron within glia: no change
